Measurements from article PMC4279406, “Simultaneous targeting of PI3Kδ and a PI3Kδ-dependent MEK1/2-Erk1/2 pathway for therapy in pediatric B-cell acute lymphoblastic leukemia” (Oncotarget, 2014).
Like-named read-outs stand apart in the source and are kept apart here.

What was measured:
Experiment in all cases: Akt phosphorylation in isogenic Rh30-Myr-p110 cells (Western blot)
Rh30-Myr-p110α cells = format: cell-based; conditions: Homo sapiens, serum-free 12 h, compound 1 h, band intensity, mean of three experiments
Description: (§1) To assess the selectivity of X-370 in the context of an isogenic cellular background, we generated a panel of Rh30 human rhabdomyosarcoma cell lines each of which stably expresses a single myristoylated (Myr)-epitope tagged p110 human class I PI3K catalytic subunit, termed as Rh30-Myr-p110α, Rh30-Myr-p110β, Rh30-Myr-p110γ or Rh30-Myr-p110δ. In these cells, endogenous PI3K is not activated under serum-free culture conditions, whereas the ectopically expressed p110 isoforms are membrane-anchored and constitutively active due to myristoylation at N-terminal. Utilizing this cell panel, isoform-specific PI3K activity can be determined for any given inhibitor[25]. These cells were treated with X-370 and phosphorylated Akt was detected as the readout of PI3K activity. X-370 inhibited phosphorylation of Akt at both Thr308 and Ser473 in a dose-dependent manner in four tested cell lines (Figure 2A). […] Similar property was also observed in CAL-101 (Figure S2).
(§2) Cell lysates were probed with indicated antibodies. The IC50 values were calculated based on relative band intensity measured with ImageQuant™ TL (GE Healthcare Life Sciences, Piscataway, NJ) (B). Data shown are mean values from three independent experiments. (C, D, E, F) X-370 blocked stimuli-triggered PI3Kδ activation. MEF cells and THP-1 were starved in serum-free medium for 12 h or 4 h respectively and X-370 were added for an additional 1 h treatment following stimulation of IGF-1 at 100 ng/ml for MEF cells (C), LPA at 10 μM for MEF cells (D), MCP-1 at 100ng/ml for THP-1 (E) and M-CSF at 50 ng/ml for THP-1 (F). Similar results were derived from 3 independent experiments. TEXT PRINTED IN THE PICTURE: (B) X-370: IC50 (μM) in Rh30-Myr-p110s, Akt pT308, PI3Kα: 0.68; IC50 (μM) in Rh30-Myr-p110s, Akt pT308, PI3Kβ: 0.4; IC50 (μM) in Rh30-Myr-p110s, Akt pT308, PI3Kγ: 0.46; IC50 (μM) in Rh30-Myr-p110s, Akt pT308, PI3Kδ: 0.032; IC50 (μM) in Rh30-Myr-p110s, Akt pS473, PI3Kα: 0.53; IC50 (μM) in Rh30-Myr-p110s, Akt pS473, PI3Kβ: 0.29; IC50 (μM) in Rh30-Myr-p110s, Akt pS473, PI3Kγ: 0.23; IC50 (μM) in Rh30-Myr-p110s, Akt pS473, PI3Kδ: 0.02 DOUBTS OF THE COPYIST ABOUT THIS PICTURE: Panel B prints no substance label in the table itself; the label X-370 is taken from the other panels of the same picture, where it is the only substance printed. […]
(§3) Cells were treated as indicated conditions and then subjected to lysate to perform standard Western blot as described previously1. Briefly, whole-cell lysates and SDS-loading buffer diluted cell fractions were analyzed on SDS-PAGE gels. Transfer to nitrocellulose membranes, nonfat milk blocking, probing with indicated primary antibodies and the corresponding HRP-conjugated second antibodies.
(§4) Chemiluminescence were performed and captured using ImageQuant LAS 4000 (GE healthcare Life Sciences, Piscataway, NJ, USA) and band intensity was measure both with ImageQuant™ TL (GE Healthcare Life Sciences) 2. […]
(§5) (also on this page, place not known: PI3Kδ -dependent MEK1/2 - B -cell previously 1. whole -cell SDS -loading SDS -PAGE HRP -conjugated (G E A B Val828 Trp760 Thr750 Met752 Tyr813 affinity pocket specificity pocket hinge Glu826 CAL-101 X-370) […]
(§6) (1 picture or pasted object on this page, not shown here)

Rh30-Myr-p110β cells = format: cell-based; conditions: Homo sapiens, serum-free 12 h, compound 1 h, band intensity, mean of three experiments
Description: as §1, §2, §3, §4, §5, §6

Rh30-Myr-p110δ cells = format: cell-based, human; conditions: for EC50 / IC50: Homo sapiens; for EC50: Rh30-Myr-p110δ cells; for IC50: serum-free 12 h, compound 1 h, band intensity, mean of three experiments
Description: as §1, §2, §3, §4, §5
(1 picture or pasted object on this page, not shown here) […]
in serum-free medium for 12 h and then incubated with serially diluted CAL -101 for an additional 1 h.
Cell lysates were probed with indicated antibodies. The IC50 values were calculated based on relative band intensity measured with ImageQuant™ TL (GE Healthcare Life Sciences, Piscataway, NJ). Data shown are mean values from three independent experiments.
Table S1: Inhibitory activity of X-370 against protein kinases […]
kinome at 10 μM. The relative kianse activity left in the presence of 10 μM were shown (Mi llipore […]
Kinase activity (% of control) Kinase activity (% of control) Kinase activity (% of control) […]
CDK1/cyclinB 97 Lck activated 89 Ret 125 […]

IC50 (Rh30-Myr-p110α cells; read-out: IC50 (μM) in Rh30-Myr-p110s, Akt pS473, PI3Kα): 0.53 µM
IC50 (Rh30-Myr-p110α cells; read-out: IC50 (μM) in Rh30-Myr-p110s, Akt pT308, PI3Kα): 0.68 µM
IC50 (Rh30-Myr-p110β cells; read-out: IC50 (μM) in Rh30-Myr-p110s, Akt pS473, PI3Kβ): 0.29 µM
IC50 (Rh30-Myr-p110β cells; read-out: IC50 (μM) in Rh30-Myr-p110s, Akt pT308, PI3Kβ): 0.4 µM
fold lower EC50 in Rh30-Myr-p110δ than in isogenic Rh30-Myr-p110α/β/γ cells (Rh30-Myr-p110δ cells; Akt pT308 and pS473): at least 10 fold
EC50 (Rh30-Myr-p110δ cells; read-out: EC50, Akt phosphorylation (Akt pS473)): 20 nM
EC50 (Rh30-Myr-p110δ cells; read-out: EC50, Akt phosphorylation (Akt pT308)): 32 nM
IC50 (Rh30-Myr-p110δ cells; read-out: IC50 (μM) in Rh30-Myr-p110s, Akt pS473, PI3Kδ): 0.02 µM
IC50 (Rh30-Myr-p110δ cells; read-out: IC50 (μM) in Rh30-Myr-p110s, Akt pT308, PI3Kδ): 0.032 µM
Structure (SMILES): O=C(N1CCCC1)N1CCC(n2cnc3c(-n4c(C(F)F)nc5ccccc54)nc(N4CCOCC4)nc32)CC1 [X-370]
